# Experiments:
# [1] = test system: metastatic colorectal cancer; conditions: cited from earlier work
# [2] = test system: cleaved/activated Notch intracellular domain (NICD); experiment: NICD staining in Dll4-Fc- or DAPT-treated HDMECs (LECs and BECs); assay type: cell-based, human; conditions: 10 μg/mL, 24 hours
# Description: FIG. 1. Expression and function of Dll4-Fc. (A) Map of the AAV9-Dll4-Fc vector. (B) Structure of the Dll4-Fc as a dimeric fusion protein of the ECD of mouse Dll4 and Fc region of human immunoglobulin (hFc). (C) Dll4-Fc in the supernatants of AAV9-transfected 293T cells was analyzed by metabolic labeling, immunoprecipitation with Protein A Sepharose and autoradiography after collecting with protein Sepharose from the supernatant of the virus-infected cells. (D) Human dermal microvascular endothelial cells (HDMECs) on glass coverslips stained with Dll4-Fc (red) on ice. After fixation with paraformaldehyde (PFA) and permeabilzation, the cells were stained for Prox-1 (Green) and Hoechst (Blue). Human immunoglobulin G1 (hIgG) was used as a negative control (Red). Note Dll4-Fc in both the Prox-1-positive lymphatic vascular endothelial cells (LECs) and Prox-1-negative cells. (E) Effect of Dll4-Fc on Notch downstream gene expression. HDMECs were treated with 10 μg/mL Dll4-Fc or 10 μg/mL DAPT for 24 hours, and the expression of Hes-1, Hey-2 and NRARP were quantified by qPCR and normalized for the expression of β-actin. The experiment was repeated 4 times. (F) The cells used in (E) were stained for NICD lymphatic vascular endothelial cells (LECs). Prox-1-positive LECs are indicated by arrowheads. (G) Quantification of NICD fluorescence intensity. **:p<0.01. *: p<0.05. […]
# [3] = test system: SK-MeI-103 tumor blood vessels; experiment: Endomucin and VEGFR-3 staining of SK-MeI-103 tumors; assay type: in vivo, mouse; conditions: SK-MeI-103 tumors expressing the VEGF-C/D trap
# Excerpt: FIG. 6. Dll4-Fc suppresses growth of tumors expressing high levels of endogenous VEGF-C. (A) VEGF-C mRNA levels in the indicated tumor cell lines analyzed by qRT-PCR. (B) Effects of Dll4-Fc on the proliferation LNM35 and SK-MeI-103 cells in culture. […] (C) The effect of Dll4-Fc on the growth of LNM35 and SK-MeI-103 tumors. (D) Endomucin staining of LNM35 and SK-MeI-103 tumors. More sprouts were associated with Dll4-Fc treatment (arrows). (E) Quantification of endomucin positive areas in LNM35 and SK-MeI-103 tumors from (D). **:p<0.01. Scale bar 50 μm.
# (§1) FIG. 7. Neutralization of VEGF-C/D attenuates the inhibition by Dll4-Fc. (A) The mice were injected by AAV9-Dll4-Fc or AAV9-HSA, followed by subcutaneous implantation of 5×10^6 VEGFR-3(D1-3)-Fc expressing or control retrovirus-transfected SK-MeI-103 cells. *: p<0.01, **: p<0.05. (B) Endomucin staining of the tumors. (C) Quantification of endomucin positive area. […] Scale bar 100 μm.
# FIG. 9. Dll4-Fc induced hypersprouting and VEGFR-3 expression in tumors. (A) High magnification fluorescent imaging of blood vessels in the SW480 tumors. Endomucin staining. […] (C) Quantification of VEGFR-3 staining intensity in the blood vessels. **: p<0.01. […]
# The immunofluorescent images were captured with a Zeiss digital Axiocam camera connected to a Zeiss AxioPlan 2 microscope. […] The image quantification was carried out using ImageJ software (NIH, Bethesda, Md.).
# [4] = test system: VEGF-C-induced BaF3/VEGFR-3 cell proliferation; experiment: BaF3/VEGFR-3 assay; assay type: cell-based, mouse; conditions: supernatant from SK-VEGFR-3(D1-3)-Fc cells
# Description: The BaF3/VEGFR-3 cells are derived from the interleukin-3 (IL-3) dependent mouse pro-B cell line, BaF3 (Bernardi et al., 1987). The cells express a chimeric receptor consisting of the ECD of human VEGFR-3 fused in-frame to the transmembrane and intracellular domain of mouse erythropoietin receptor (Achen et al., 2000). In IL-3 deficient cell media, the cells can be rescued by the addition of VEGF-C. The serial dilutions of supernatants (50 μl each), as well as positive and negative controls were applied in the wells of 96-well plates in quadruplicate. Subsequently, 20,000 BaF3/VEGFR-3 cells in 50 μl were added and the cells incubated at 37° C. for 48 hours. MTT substrate was added and the cells incubated at 37° C. for 2 hours. Lysis buffer (10% SDS, 10 mM HCl) was added and the plates incubated at 37° C. overnight for colour development. Quantification was done by absorbance at 540 nm.
# SK-MeI-103 tumors = experiment: SK-MeI-103 tumor xenograft growth (control or VEGFR-3(D1-3)-Fc expressing); assay type: in vivo, mouse; conditions: SK-MeI-103, AAV9-HSA treated mice
# Description: as §1
# Six- to eight-week old female nu/nu BALB/c mice were purchased from Harlan Laboratories (Venray, The Netherlands). The National Board for Animal Experiments at the Provincial State Office of Southern Finland approved all the experiments, which were performed in accordance with Finnish legislation regarding the humane care and use of laboratory animals. […] Once the tumors became visible during the first few days, the size of the tumor was measured by a digital caliper every second day. The tumor volume was calculated using the formula: (length)×(width)×(depth)×0.52.
# The SK-Mel-103 cells were transfected by an empty retrovirus (control) or by a retrovirus encoding VEGFR-3(D1-3)-Fc and then subcutaneously inoculated into nu/nu mice treated with the AAV9-HSA or the AAV9-Dll4-Fc as described above. […] This difference was statistically significant when measured 10, 12 and 14 days after tumor inoculation. […]
# BECs on LECs islands = experiment: Sprout-like structures in 2D culture of LECs and BECs; assay type: cell-based, human; conditions: 1:1 LECs and BECs, 48 hours, 200 ng/ml VEGF-C with or without 10 μg/ml Dll4-Fc
# Description: 1:1 Mixtures of BECs and LECs were grown on cover slips for 48 hours without VEGF-C to allow them to make LECs islands surrounded by BECs. The cells were then incubated for a further 48 hours with 200 ng/ml VEGF-C (produced by Dr Michael Jeltsch, University of Helsinki) with or without 10 μg/ml recombinant human Dll4-Fc protein (R&D Systems). After fixation with 1% PFA, the samples were immunostained for PECAM-1, a blood vascular endothelial marker, and podoplanin, a lymphatic endothelial marker, to identify BECs and LECs. The number of sprout-like projections of BECs on LECs islands was then counted under a fluorescence microscope.
# [5] = newly diagnosed, Mayo Clinic or Roswell Park regimen
# [6] = subjects progressed following 5-FU therapy
molecule,measurement,setting,value
5-FU/leucovorin,median survival,[1]; [5],12-14 months
same,median time to disease progression,[1]; [5],4-5 months
"C[C@H](NC(=O)Cc1cc(F)cc(F)c1)C(=O)N[C@H](C(=O)OC(C)(C)C)c1ccccc1 [DAPT, N—[N-(3,5-difluorophenacetyl)-1-alanyl]-S-phenyl-glycine t-butyl ester]",intensity of NICD,[2],decreased in both LECs and BECs
CCc1c2c(nc3ccc(OC(=O)N4CCC(N5CCCCC5)CC4)cc13)-c1cc3c(c(=O)n1C2)COC(=O)[C@]3(O)CC [irinotecan],prolongation of survival versus best supportive care,[1]; [6],2.8 month
same,prolongation of survival versus infusional 5-FU,[1]; [6],2.2 month
"VEGFR-3(D1-3)-Fc: fusion protein of the immunoglobulin-like domains 1-3 of the extracellular part of human VEGFR-3 and the Fc part of human immunoglobulin G1 (protein, left off: a dimerising Fc or GST, fusion protein of the immunoglobulin-like domains 1-3 of the extracellular part of human VEGFR-3 and the Fc part of human immunoglobulin G1) YSMTPPTLNITEESHVIDTGDSLSISCRGQHPLEWAWPGAQEAPATGDKDSEDTGVVRDCEGTDARPYCKVLLLHEVHANDTGSYVCYYKYIKARIEGTTAASSYVFVRDFEQPFINKPDTLLVNRKDAMWVPCLVSIPGLNVTLRSQSSVLWPDGQEVVWDDRRGMLVSTPLLHDALYLQCETTWGDQDFLSNPFLVHITGNELYDIQLLPRKSLELLVGEKLVLNCTVWAEFNSGVTFDWDYPGKQAERGKWVPERRSQQTHTELSSILTIHNVSQHDLGSYVCKANNGIQRFRESTEVIVHE",endothelial proliferation / vessel density in tumors,[3],downregulated endothelial proliferation
same,BaF3/VEGFR-3 cell proliferation induced by VEGF-C,[4],suppresses
same,growth rates of VEGFR-3(D1-3)-Fc versus empty retrovirus tumors,SK-MeI-103 tumors,No difference in growth rates
VEGF-C: Vascular endothelial growth factor-C protein added to endothelial cell cultures (protein) AHYNTEILKSIDNEWRKTQCMPREVCIDVGKEFGVATNTFFKPPCVSVYRCGGCCNSEGLQCMNTSTSYLSKTLFEITVPLSQGPKPVTISFANHTSCRCMSKLDVYRQVHSIIRR,frequency of sprout-like structures of BECs over LECs islands,BECs on LECs islands,"tended to increase the sprout-like structure, but the difference was not statistically significant"

# Reference: patent publication US20130039930A1, “BIOMARKER FOR SENSITIVITY TO THERAPY WITH A NOTCH INHIBITOR” (priority 2011, published 2013)
